From patent US20120270929A1, “MODULATION OF TTC39 EXPRESSION TO INCREASE HDL” (ISIS Pharmaceuticals, Inc., priority 2009, published 2012) come the findings set out here.

Data set [1] is described as follows: Plasma cholesterol and triglycerides in LDLr-/- mice. Particulars: 50 mg/kg/week. The class given is in vivo, mouse. Here is the method: The LDLr knockout mice model is a model for familial hypercholesterolemia developed by Ishibashi et al (J Clin Invest 1993; 92: 883-893). On a normal chow diet, the mice have an average total cholesterol of 250 mg/dL due to increases in LDL and VLDL cholesterol. This model is therefore highly susceptible to atherosclerosis (Ishibashi et al Proc Natl Acad Sci USA 1994; 91: 4431-4435).
(§1) Four groups of five male mice each were injected with a total of 1.5, 5, 15, or 50 mg/kg/week of ISIS 447118 for 6 weeks. A group of five mice was injected with a total of 50 mg/kg/week of control oligonucleotide ISIS 141923 ([…], designated herein as SEQ ID NO: 112, which has no known murine target) for 6 weeks. A control group of five mice was injected with phosphate buffered saline (PBS) twice a week for 6 weeks. Plasma samples were obtained before the start of treatment, at week 3 and at week 6. At the end of the treatment period, the mice were euthanized. Plasma and tissue samples were obtained for further analysis.
To investigate the effect of inhibition of TTC39B on triglycerides and cholesterol levels in the plasma, samples were collected on weeks 0, 3, and 6, and total plasma cholesterol, LDL cholesterol, HDL cholesterol, and triglycerides were analyzed on an Olympus AU400e Analyzer.

In data set [2] the test system is Apolipoprotein A-IV (ApoA4) mRNA. Kind of data set: PCR microarray analysis of liver, LDLr-/- mice: ApoA4. Particulars: 50 mg/kg, 6 weeks. It is filed as in vivo, mouse. Here is the method: as §1
(§2) Liver samples from the mice groups were analyzed using a commercial kit for PCR microarray analysis (SA Biosciences Corp., MD), according to the manufacturer's instructions. Genes involved in lipoprotein and cholesterol metabolism were compared with the PBS control.

The test system of data set [3] is Low density lipoprotein receptor (Ldlr) mRNA. Kind of data set: PCR microarray analysis of liver, LDLr-/- mice: Ldlr. It is filed as in vivo, mouse. The note with it: 50 mg/kg, 6 weeks. Here is the method:
as §1, §2

Data set [4] relates to Oxysterol binding protein-like 5 (Osbpl5) mRNA. Put plainly: PCR microarray analysis of liver, LDLr-/- mice: Osbpl5. The class given is in vivo, mouse. The note with it: 50 mg/kg, 6 weeks. Here is the method:
as §1, §2

Data set [5] has as its system Sterol O-acyltransferase 2 (Soat2) mRNA. Put plainly: PCR microarray analysis of liver, LDLr-/- mice: Soat2. The class given is in vivo, mouse. The note with it: 50 mg/kg, 6 weeks. Here is the method:
as §1, §2

In a further data set the test system is Stabilin 1 (Stab1) mRNA. Kind of data set: PCR microarray analysis of liver, LDLr-/- mice: Stab1. It is filed as in vivo, mouse. Particulars: 50 mg/kg, 6 weeks. Here is the method: as §1, §2
Data set [6] has as its system Farnesyl diphosphate synthetase (Fdps) mRNA. Put plainly: PCR microarray analysis of liver, LDLr-/- mice: Fdps. The class given is in vivo, mouse. The note with it: 50 mg/kg, 6 weeks. Here is the method:
as §1, §2

The test system of data set [7] is Insulin induced gene 1 (Insig1) mRNA. Put plainly: PCR microarray analysis of liver, LDLr-/- mice: Insig1. Particulars: 50 mg/kg, 6 weeks. It is filed as in vivo, mouse. Here is the method: as §1, §2
The subject of data set [8] is Mevalonate (diphospho) decarboxylase (Mvd) mRNA. Put plainly: PCR microarray analysis of liver, LDLr-/- mice: Mvd. Particulars: 50 mg/kg, 6 weeks. The class given is in vivo, mouse. Here is the method: as §1, §2
For data set [9], the system named is Proprotein convertase subtilisin/kexin type 9 (Pcsk9) mRNA. Kind of data set: PCR microarray analysis of liver, LDLr-/- mice: Pcsk9. The class given is in vivo, mouse. Particulars: 50 mg/kg, 6 weeks. Here is the method:
as §1, §2

In data set [10] the test system is murine TTC39A mRNA. Put plainly: Antisense inhibition of mouse TTC39A in b.END cells, single dose. It is filed as cell-based. The note with it: 70 nM, cytofectin, ~24 h, vs untreated control. Here is the method:
Antisense oligonucleotides were designed targeting a TTC39A nucleic acid and were tested for their effects on TTC39A mRNA in vitro. Cultured b.END cells at a density of 4,000 cells per well were transfected using cytofectin reagent with 70 nM antisense oligonucleotide. After a treatment period of approximately 24 hours, RNA was isolated from the cells and TTC39A mRNA levels were measured by quantitative real-time PCR. Mouse primer probe set RTS3262 (forward sequence TGTGCGTCATGCTGTTGCT, designated herein as SEQ ID NO: 113; reverse sequence […], designated herein as SEQ ID NO: 114; probe sequence […], designated herein as SEQ ID NO: 115). TTC39A mRNA levels were adjusted according to total RNA content, as measured by RIBOGREEN®. Results are presented as percent inhibition of TTC39A, relative to untreated control cells.
The chimeric antisense oligonucleotides targeting TTC39A were designed as 5-10-5 MOE gapmers. The gapmers are 20 nucleotides in length, wherein the central gap segment is comprised of ten 2′-deoxynucleotides and is flanked on both sides (in the 5′ and 3′ directions) by wings comprising five nucleotides each. Each nucleotide in the 5′ wing segment and each nucleotide in the 3′ wing segment has a 2′-MOE modification. The internucleoside linkages throughout each gapmer are phosphorothioate (P═S) linkages. All cytosine residues throughout each gapmer are 5-methylcytosines. “Mouse Target start site” indicates the 5′-most nucleotide to which the gapmer is targeted in a mouse nucleic acid sequence.

Data set [11] concerns murine TTC39A mRNA. Kind of data set: Dose-dependent antisense inhibition of murine TTC39A in b.END cells. The class given is cell-based, mouse. Particulars: ~16 h; for IC50: cytofectin. Here is the method:
Cells were plated at a density of 3,500 cells per well and transfected using cytofectin reagent with 4.375 nM, 8.75 nM, 17.5 nM, 35 nM, 70 nM, and 140 nM concentrations of antisense oligonucleotide, as specified in Table 28. After a treatment period of approximately 16 hours, RNA was isolated from the cells and TTC39A mRNA levels were measured by quantitative real-time PCR. Murine primer probe set RTS3262 was used to measure mRNA levels. TTC39A mRNA levels were adjusted according to total RNA content, as measured by RIBOGREEN®. Results are presented as percent inhibition of TTC39A, relative to untreated control cells.

Oligonucleotides are written 5' to 3', each unit as a sugar letter and its base; * is a phosphorothioate linkage, no mark a phosphodiester; rarer units and linkages stand in square brackets, end groups in braces. Plain capitals give the bases only. e = 2'-O-(2-methoxyethyl) (MOE); [5mC] = 5-methylcytosine; d = 2'-deoxy (DNA)

For “CCTTCCCTGAAGGTTCCTCC (chemistry not given here) [ISIS 141923, reference compound]”, the “HDL cholesterol % increase on week 6 (% change over baseline)” value in data set [1] was found to be 43%. Moreover, in [1] (Week 0 (before treatment)), the HDL cholesterol levels is recorded as 76 mg/dL, the LDL cholesterol levels is 100 mg/dL, the total cholesterol levels is 206 mg/dL and the triglyceride levels amounted to 97 mg/dL. Also, in data set [1] (Week 3), the HDL cholesterol levels was 78 mg/dL, the LDL cholesterol levels amounted to 100 mg/dL, the total cholesterol levels came out at 204 mg/dL and the triglyceride levels is recorded as 116 mg/dL. Further, in data set [1] (Week 6), the HDL cholesterol levels is listed as 108 mg/dL, the LDL cholesterol levels was 112 mg/dL, the total cholesterol levels was 227 mg/dL and the triglyceride levels turned out to be 143 mg/dL. Further, the “ApoA4 fold increase/decrease relative to PBS group” value in data set [2] was 0.87 fold. The “Ldlr fold increase/decrease relative to PBS group” value in [3] is on record as 1.36 fold. For the same sequence, the “Osbpl5 fold increase/decrease relative to PBS group” value in data set [4] was 1.21 fold. Also, in [5], the “Soat2 fold increase/decrease relative to PBS group” value is 0.95 fold. Besides, the “Stab1 fold increase/decrease relative to PBS group” value with Stabilin 1 (Stab1) mRNA is given as 1.12 fold. Also, in data set [6], the “Fdps fold increase/decrease relative to PBS group” value is on record as 1.21 fold. For the same sequence, the “Insig1 fold increase/decrease relative to PBS group” value in data set [7] stood at 1.13 fold. Besides, in data set [8], the “Mvd fold increase/decrease relative to PBS group” value was determined as 1.25 fold. Besides, the “Pcsk9 fold increase/decrease relative to PBS group” value in [9] worked out at 1.09 fold.

Consider “GCCTCAGAATCCTGGTGGGA (eG*e[5mC]*e[5mC]*eT*e[5mC]*dA*dG*dA*dA*dT*d[5mC]*d[5mC]*dT*dG*dG*eT*eG*eG*eG*eA; antisense) [ISIS 474437]”, for which the “% inhibition of murine TTC39A mRNA” value in the data set on murine TTC39A mRNA [10] is 94%. In addition, the “percent inhibition of TTC39A mRNA” value in the data set on murine TTC39A mRNA [11] (4.375 nM) worked out at 5%; in the data set with murine TTC39A mRNA [11] (8.75 nM), 6%; in the data set on murine TTC39A mRNA [11] (17.5 nM), 26%; in the data set with murine TTC39A mRNA [11] (35.0 nM), 36%; in the data set with murine TTC39A mRNA [11] (70.0 nM), 62%; in the data set on murine TTC39A mRNA [11] (140.0 nM) it was 82%. This sequence also returned an IC50 in the data set with murine TTC39A mRNA [11] of 49 nM.

Take “TCCATGGAGTAGTTCTTGTA (eT*e[5mC]*e[5mC]*eA*eT*dG*dG*dA*dG*dT*dA*dG*dT*dT*d[5mC]*eT*eT*eG*eT*eA; antisense) [ISIS 474452]”: the “% inhibition of murine TTC39A mRNA” value in the data set on murine TTC39A mRNA [10] turned out to be 92%. Further, the “percent inhibition of TTC39A mRNA” value in the data set on murine TTC39A mRNA [11] (4.375 nM) is listed as 0%; with murine TTC39A mRNA [11] (8.75 nM) it was 9%; in the data set with murine TTC39A mRNA [11] (17.5 nM) it was 36%; in the data set on murine TTC39A mRNA [11] (35.0 nM), 46%; in the data set with murine TTC39A mRNA [11] (70.0 nM) it was 61%; with murine TTC39A mRNA [11] (140.0 nM), 86%. Besides, in the data set on murine TTC39A mRNA [11], half-maximal inhibition (IC50) required 41 nM.

Regarding “TCCTTGCTCAGCAGGTCGGC (eT*e[5mC]*e[5mC]*eT*eT*dG*d[5mC]*dT*d[5mC]*dA*dG*d[5mC]*dA*dG*dG*eT*e[5mC]*eG*eG*e[5mC]; antisense) [ISIS 474366]”, the “% inhibition of murine TTC39A mRNA” value with murine TTC39A mRNA [10] amounted to 93%. The “percent inhibition of TTC39A mRNA” value in the data set on murine TTC39A mRNA [11] (4.375 nM) was 0%; in the data set with murine TTC39A mRNA [11] (8.75 nM) it was 0%; in the data set on murine TTC39A mRNA [11] (17.5 nM), 23%; with murine TTC39A mRNA [11] (35.0 nM) it was 45%; in the data set on murine TTC39A mRNA [11] (70.0 nM), 64%; in the data set on murine TTC39A mRNA [11] (140.0 nM), 80%. The IC50 with murine TTC39A mRNA [11] was determined as 43 nM.

For the sequence “TCGGTGCCTCTGACACAGCG (eT*e[5mC]*eG*eG*eT*dG*d[5mC]*d[5mC]*dT*d[5mC]*dT*dG*dA*d[5mC]*dA*e[5mC]*eA*eG*e[5mC]*eG; antisense) [ISIS 474474]”, the “% inhibition of murine TTC39A mRNA” value in the data set on murine TTC39A mRNA [10] was 97%. Further, the “percent inhibition of TTC39A mRNA” value with murine TTC39A mRNA [11] (4.375 nM) came to 0%; in the data set with murine TTC39A mRNA [11] (8.75 nM), 5%; with murine TTC39A mRNA [11] (17.5 nM) it was 27%; in the data set with murine TTC39A mRNA [11] (35.0 nM) it was 56%; in the data set on murine TTC39A mRNA [11] (70.0 nM), 72%; in the data set on murine TTC39A mRNA [11] (140.0 nM) it was 87%. In the data set with murine TTC39A mRNA [11], this sequence showed an IC50 of 33 nM.

For “TGCACTGGTCCAGGGCCTCA (eT*eG*e[5mC]*eA*e[5mC]*dT*dG*dG*dT*d[5mC]*d[5mC]*dA*dG*dG*dG*e[5mC]*e[5mC]*eT*e[5mC]*eA; antisense) [ISIS 474351]”, the “% inhibition of murine TTC39A mRNA” value in the data set with murine TTC39A mRNA [10] was 94%. Also, the “percent inhibition of TTC39A mRNA” value with murine TTC39A mRNA [11] (4.375 nM) came to 6%; with murine TTC39A mRNA [11] (8.75 nM) it was 0%; with murine TTC39A mRNA [11] (17.5 nM), 8%; in the data set with murine TTC39A mRNA [11] (35.0 nM), 48%; with murine TTC39A mRNA [11] (70.0 nM), 66%; in the data set on murine TTC39A mRNA [11] (140.0 nM), 84%. Further, in the data set on murine TTC39A mRNA [11], the midpoint of inhibition, the IC50, lay at 44 nM.

The term IC50 denotes the concentration needed to halve the response being measured. A high value points to lower potency.
